Experimental data as given in US20240368150A1 (Hoffmann-La Roche Inc., priority 2021, published 2024).
Where two headings read alike, the source gives them in different places.

What was measured:
[1] = test system: primary human T-cells; assay: Proliferation assay after 5 days (CellTiter-Glo, CD3 stimulation; PBS counter screen); format: cell-based; settings: CD3 stimulation; for Emax: read-out: Emax proliferation (% activation); for EC50: primary human T-cells, CellTiter-Glo after 5 days, EC50 of fitted sigmoidal curve, read-out: Tcell Proliferation CD3 EC50
In short: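 After compound addition to medium-only plates, cells are cultured 5 days, equilibrated to room temperature, mixed with an equal volume of CellTiter-Glo 2.0 and rocked 15 min before luminescence is read. Signal reflects ATP content, taken as proportional to cell number.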

[2] = test system: primary human T-cells
[3] = Homo sapiens, T-cell, 120 h, 5 days, normalized to reference compound A1 as stimulator control = 100%, DMSO neutral control

Row | EC50 [2] [nM] | SMILES | Emax [1, 3] [%] | EC50 ([1]; Homo sapiens, T-cell, 120 h) [nM] | Emax proliferation (% activation) ([1]; 5 days, normalized to reference compound A1 as stimulator control = 100%, DMSO neutral control) | EC50 [1] [nM]
1 | 92.1 | CC(C)(C)c1nnc(-c2cc3c(cc2F)S(=O)(=O)C[C@H](N)C(=O)N3Cc2ccc(Cl)c(F)c2)o1 [Example 245, (3R)-3-amino-7-(5-tert-butyl-1,3,4-oxadiazol-2-yl)-5-[(4-chloro-3-fluoro-phenyl)methyl]-8-fluoro-1,1-dioxo-2,3-dihydro-1λ^6,5-benzothiazepin-4-one] | 127 | 102 | – | –
2 | 342 | CC(C)(C)c1nnc(-c2cc3c(cc2F)S(=O)(=O)C[C@H](N)C(=O)N3Cc2ccc(F)c(F)c2)o1 [Example 246, (3R)-3-amino-7-(5-tert-butyl-1,3,4-oxadiazol-2-yl)-5-[(3,4-difluorophenyl)methyl]-8-fluoro-1,1-dioxo-2,3-dihydro-1λ^6,5-benzothiazepin-4-one] | 110 | 442 | – | –
3 | 320 | CC(C)Oc1ccc(CN2C(=O)[C@@H](N)CS(=O)(=O)c3cc(F)c(-c4nnc(C(C)(C)C)o4)cc32)nc1 [Example 247, (3R)-3-amino-7-(5-tert-butyl-1,3,4-oxadiazol-2-yl)-8-fluoro-5-[(5-isopropoxy-2-pyridyl)methyl]-1,1-dioxo-2,3-dihydro-1λ^6,5-benzothiazepin-4-one] | 79 | 761 | – | –
4 | > 10000 | CC(C)(C)c1nnc(-c2cc3c(cc2F)S(=O)(=O)C[C@H](N)C(=O)N3Cc2ccc(Cl)nn2)o1 [Example 251, (3R)-3-amino-7-(5-tert-butyl-1,3,4-oxadiazol-2-yl)-5-[(6-chloropyridazin-3-yl)methyl]-8-fluoro-1,1-dioxo-2,3-dihydro-1λ^6,5-benzothiazepin-4-one] | 66 | 5300 | – | –
5 | 1160 | CC(C)(C)c1nnc(-c2cc3c(cc2F)S(=O)(=O)C[C@H](N)C(=O)N3Cc2cncc(Cc3ccc(Cl)cc3)c2)o1 [Example 252, (3R)-3-amino-7-(5-tert-butyl-1,3,4-oxadiazol-2-yl)-5-[[5-[(4-chlorophenyl)methyl]-3-pyridyl]methyl]-8-fluoro-1,1-dioxo-2,3-dihydro-1λ^6,5-benzothiazepin-4-one] | 72 | 4820 | – | –
6 | 849 | CC(C)(C)c1nnc(-c2cc3c(cc2F)S(=O)(=O)C[C@H](N)C(=O)N3Cc2cnn(CC3CC3)c2)o1 [Example 255, (3R)-3-amino-7-(5-tert-butyl-1,3,4-oxadiazol-2-yl)-5-[[1-(cyclopropylmethyl)pyrazol-4-yl]methyl]-8-fluoro-1,1-dioxo-2,3-dihydro-1λ^6,5-benzothiazepin-4-one] | 78 | 4830 | – | –
7 | > 20000 | CC(C)(C)c1nnc(-c2cc3c(cc2F)S(=O)(=O)C[C@H](N)C(=O)N3Cc2ccc(Cl)cc2CN)o1 [Example 256, (3R)-3-amino-5-[[2-(aminomethyl)-4-chloro-phenyl]methyl]-7-(5-tert-butyl-1,3,4-oxadiazol-2-yl)-8-fluoro-1,1-dioxo-2,3-dihydro-1λ^6,5-benzothiazepin-4-one] | 3 | > 20000 | – | –
8 | > 20000 | CC(C)(C)c1nnc(-c2cc3c(cc2F)S(=O)(=O)C[C@H](N)C(=O)N3Cc2ccc(OCCCCCCCCCCCN)cc2)o1 [Example 257, (3R)-3-amino-5-[[4-(11-aminoundecoxy)phenyl]methyl]-7-(5-tert-butyl-1,3,4-oxadiazol-2-yl)-8-fluoro-1,1-dioxo-2,3-dihydro-1λ^6,5-benzothiazepin-4-one] | 142 | < 162 | – | –
9 | 10800 | CC(=O)N[C@H]1CS(=O)(=O)c2cc(F)c(-c3nnc(C(C)(C)C)o3)cc2N(Cc2ccc(Cl)cc2)C1=O [Example 258, N-[(3R)-7-(5-tert-butyl-1,3,4-oxadiazol-2-yl)-5-[(4-chlorophenyl)methyl]-8-fluoro-1,1,4-trioxo-2,3-dihydro-1λ^6,5-benzothiazepin-3-yl]acetamide] | 124 | 586 | – | –
10 | 2100 | CCC(=O)N[C@H]1CS(=O)(=O)c2cc(F)c(-c3nnc(C(C)(C)C)o3)cc2N(Cc2ccc(Cl)cc2)C1=O [Example 259, N-[(3R)-7-(5-tert-butyl-1,3,4-oxadiazol-2-yl)-5-[(4-chlorophenyl)methyl]-8-fluoro-1,1,4-trioxo-2,3-dihydro-1λ^6,5-benzothiazepin-3-yl]propanamide] | 159 | 345 | – | –
11 | > 20000 | CC[C@H](O)C(=O)N[C@H]1CS(=O)(=O)c2cc(F)c(-c3nnc(C(C)(C)C)o3)cc2N(Cc2ccc(Cl)cc2)C1=O [Example 260, (2S)-N-[(3R)-7-(5-tert-butyl-1,3,4-oxadiazol-2-yl)-5-[(4-chlorophenyl)methyl]-8-fluoro-1,1,4-trioxo-2,3-dihydro-1λ^6,5-benzothiazepin-3-yl]-2-hydroxy-butanamide] | 82 | 1820 | – | –
12 | 2690 | CCCC(=O)N[C@H]1CS(=O)(=O)c2cc(F)c(-c3nnc(C(C)(C)C)o3)cc2N(Cc2ccc(Cl)cc2)C1=O [Example 261, N-[(3R)-7-(5-tert-butyl-1,3,4-oxadiazol-2-yl)-5-[(4-chlorophenyl)methyl]-8-fluoro-1,1,4-trioxo-2,3-dihydro-1λ^6,5-benzothiazepin-3-yl]butanamide] | 115 | 428 | – | –
13 | 1400 | CC[C@H](NC)C(=O)N[C@H]1CS(=O)(=O)c2cc(F)c(-c3nnc(C(C)(C)C)o3)cc2N(Cc2ccc(Cl)cc2)C1=O [Example 263, (2S)-N-[(3R)-7-(5-tert-butyl-1,3,4-oxadiazol-2-yl)-5-[(4-chlorophenyl)methyl]-8-fluoro-1,1,4-trioxo-2,3-dihydro-1λ^6,5-benzothiazepin-3-yl]-2-(methylamino)butanamide] | – | – | 185 | < 162
14 | 8100 | CC(C)(C)c1nnc(-c2cc3c(cc2F)S(=O)(=O)C[C@H](NC(=O)CCN)C(=O)N3Cc2ccc(Cl)cc2)o1 [Example 264, 3-amino-N-[(3R)-7-(5-tert-butyl-1,3,4-oxadiazol-2-yl)-5-[(4-chlorophenyl)methyl]-8-fluoro-1,1,4-trioxo-2,3-dihydro-1λ^6,5-benzothiazepin-3-yl]propanamide] | 106 | 2700 | – | –
15 | > 20000 | CNCC(=O)N[C@H]1CS(=O)(=O)c2cc(F)c(-c3nnc(C(C)(C)C)o3)cc2N(Cc2ccc(Cl)cc2)C1=O [Example 265, N-[(3R)-7-(5-tert-butyl-1,3,4-oxadiazol-2-yl)-5-[(4-chlorophenyl)methyl]-8-fluoro-1,1,4-trioxo-2,3-dihydro-1λ^6,5-benzothiazepin-3-yl]-2-(methylamino)acetamide] | 143 | 884 | – | –

Row | SMILES | EC50 [2] [nM] | Emax [1, 3] [%] | EC50 ([1]; Homo sapiens, T-cell, 120 h) [nM] | Emax proliferation (% activation) ([1]; 5 days, normalized to reference compound A1 as stimulator control = 100%, DMSO neutral control) | EC50 [1] [nM]
16 | CC(C)(C)c1nnc(-c2cc3c(cc2F)S(=O)(=O)C[C@H](N)C(=O)N3Cc2ccc(OC3CCCC3)nc2)o1 [Example 248, (3R)-3-amino-7-(5-tert-butyl-1,3,4-oxadiazol-2-yl)-5-[[6-(cyclopentoxy)-3-pyridyl]methyl]-8-fluoro-1,1-dioxo-2,3-dihydro-1λ^6,5-benzothiazepin-4-one] | 140 | 157 | 440 | – | –
